Measurements: PubChem BioAssay (NCI)
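Compound exposure: 48 hours, 5 concentrations, 96-well plates. TGI is the concentration that stops growth completely.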

Columns and labels:
Test in all cases: DTP human tumour cell line panel, 48 h
[1] = tested on: A549 NSCLC
[2] = tested on: SF-539 CNS
[3] = tested on: OVCAR-4 ovarian
[4] = tested on: HCT-116 colon
[5] = tested on: RPMI-8226 leukemia
[6] = tested on: UACC-62 melanoma
[7] = tested on: SNB-75 CNS
[8] = tested on: LOX IMVI melanoma
[9] = tested on: NCI-H522 lung
[10] = tested on: UO-31 renal
[11] = tested on: RXF 393 renal
[12] = tested on: EKVX NSCLC
[13] = tested on: T-47D breast
[14] = tested on: K-562 leukemia
[15] = tested on: SNB-19 CNS
[16] = tested on: NCI-H226 lung
[17] = tested on: SW-620 colon
[18] = tested on: HOP-62 NSCLC
[19] = tested on: 786-0 renal
[20] = tested on: U251 CNS
[21] = tested on: MOLT-4 leukemia
[22] = tested on: ACHN renal
[23] = tested on: M14 melanoma
[24] = tested on: TK-10 renal
[25] = tested on: DU-145 prostate
[26] = tested on: HCC-2998 colon
[27] = tested on: SF-268 CNS
[28] = tested on: IGROV1 ovarian
[29] = tested on: NCI-H460 lung
[30] = tested on: CAKI-1 renal
[31] = tested on: SK-MEL-5 melanoma
[32] = tested on: MCF7 breast
[33] = tested on: SF-295 CNS
[34] = tested on: SN12C renal
[35] = tested on: NCI-H23 lung
[36] = tested on: UACC-257 melanoma
[37] = tested on: HT29 colon
[38] = tested on: MDA-MB-231 breast
[39] = tested on: OVCAR-3 ovarian
[40] = tested on: HCT-15 colon
[41] = tested on: CCRF-CEM leukemia
[42] = tested on: BT-549 breast
[43] = tested on: PC-3 prostate
[44] = tested on: SK-MEL-28 melanoma
[45] = tested on: NCI/ADR-RES ovarian
[46] = tested on: OVCAR-8 ovarian
[47] = tested on: MDA-MB-435
[48] = tested on: OVCAR-5 ovarian
[49] = tested on: MDA-N
[50] = tested on: HOP-92 NSCLC
[51] = tested on: SK-MEL-2 melanoma
[52] = tested on: HS 578T breast
[53] = tested on: KM12 colon
[54] = tested on: MALME-3M melanoma
[55] = tested on: COLO 205 colon
[56] = tested on: HL-60(TB) leukemia
[57] = tested on: A498 renal
[58] = tested on: SK-OV-3 ovarian
[59] = tested on: SR leukemia

With `CCCCCNC(=O)c1cc2cc(CCl)ccc2oc1=O` the TGI [1] was 14.1 µM, the TGI [2] was 16.8 µM and the TGI [3] was 26.6 µM. For the same molecule, the TGI [4] was > 38.5 µM, the TGI [5] was > 100 µM and the TGI [6] was 7.15 µM. For the same molecule, the TGI [7] was 13.1 µM, the TGI [8] was > 72.8 µM and the TGI [9] was 17.1 µM. The TGI [10] was 3.07 µM, the TGI [11] was 1.78 µM and the TGI [12] was 9.94 µM. The TGI [13] was 2.98 µM, the TGI [14] was > 100 µM and the TGI [15] was > 69 µM. The TGI [16] was 30.1 µM, the TGI [17] was > 100 µM and the TGI [18] was 14 µM. For the same molecule, the TGI [19] was 2.82 µM, the TGI [20] was 36.6 µM and the TGI [21] was > 100 µM. For the same molecule, the TGI [22] was 4.52 µM, the TGI [23] was > 51.4 µM and the TGI [24] was 2.85 µM. For the same molecule, the TGI [25] was 5.95 µM, the TGI [26] was 18.9 µM and the TGI [27] was 12.4 µM. The TGI [28] was 18.6 µM, the TGI [29] was 3.3 µM and the TGI [30] was 2.57 µM. The TGI [31] was > 51.2 µM, the TGI [32] was > 87.4 µM and the TGI [33] was 24.7 µM. For the same molecule, the TGI [34] was 3.67 µM, the TGI [35] was 11.5 µM and the TGI [36] was 6.56 µM. The TGI [37] was 9.58 µM, the TGI [38] was 3.72 µM and the TGI [39] was 26.6 µM. For the same molecule, the TGI [40] was 6.22 µM, the TGI [41] was > 100 µM and the TGI [42] was > 46.3 µM. The TGI [43] was 2.81 µM, the TGI [44] was > 100 µM and the TGI [45] was > 66.8 µM. For the same molecule, the TGI [46] was > 100 µM, the TGI [47] was > 60.8 µM and the TGI [48] was 7.99 µM. For the same molecule, the TGI [49] was > 94.2 µM, the TGI [50] was 3.71 µM and the TGI [51] was 19.8 µM. The TGI [52] was > 54.7 µM, the TGI [53] was > 44.5 µM and the TGI [54] was 7.5 µM. The TGI [55] was 2.79 µM, the TGI [56] was 10.5 µM and the TGI [57] was 3.98 µM. The TGI [58] was 10.3 µM and the TGI [59] was > 100 µM.

`CN(C)c1ccc(C2SCC(=O)N2c2nc3cc4sc(N5C(=O)CSC5c5ccc(N(C)C)cc5)nc4cc3s2)cc1` (stereo unspecified) was tested, and the TGI [1] was > 100 µM, the TGI [2] was > 100 µM and the TGI [3] was > 100 µM. For the same molecule, the TGI [4] was > 100 µM, the TGI [5] was > 100 µM and the TGI [6] was > 100 µM. For the same molecule, the TGI [7] was > 100 µM, the TGI [8] was > 100 µM and the TGI [9] was > 100 µM. The TGI [10] was > 100 µM, the TGI [11] was > 100 µM and the TGI [12] was > 100 µM. For the same molecule, the TGI [13] was > 100 µM, the TGI [14] was > 100 µM and the TGI [15] was > 100 µM. The TGI [16] was 73.1 µM, the TGI [17] was > 100 µM and the TGI [18] was > 100 µM. The TGI [19] was > 100 µM, the TGI [20] was > 100 µM and the TGI [21] was > 100 µM. The TGI [22] was > 100 µM, the TGI [23] was > 100 µM and the TGI [24] was > 100 µM. For the same molecule, the TGI [25] was > 87.2 µM, the TGI [26] was > 100 µM and the TGI [27] was > 100 µM. The TGI [28] was > 100 µM, the TGI [29] was > 28.3 µM and the TGI [30] was > 100 µM. For the same molecule, the TGI [31] was > 100 µM, the TGI [32] was > 100 µM and the TGI [33] was > 100 µM. The TGI [34] was > 100 µM, the TGI [35] was > 100 µM and the TGI [36] was > 70 µM. For the same molecule, the TGI [37] was > 100 µM, the TGI [38] was > 100 µM and the TGI [39] was > 100 µM. For the same molecule, the TGI [40] was > 100 µM, the TGI [41] was > 100 µM and the TGI [42] was > 100 µM. The TGI [43] was > 100 µM, the TGI [44] was > 100 µM and the TGI [45] was > 76.3 µM. The TGI [46] was > 100 µM, the TGI [47] was > 100 µM and the TGI [48] was > 100 µM. For the same molecule, the TGI [49] was > 100 µM, the TGI [50] was > 100 µM and the TGI [51] was > 100 µM. The TGI [52] was > 100 µM, the TGI [53] was > 100 µM and the TGI [54] was > 100 µM. The TGI [55] was > 100 µM, the TGI [56] was > 100 µM and the TGI [57] was > 100 µM. The TGI [58] was > 100 µM and the TGI [59] was > 100 µM.

`O=C(Nn1cc(F)c(=O)[nH]c1=O)C12CC3CC(CC(C3)C1)C2` was tested, and the TGI [1] was > 100 µM, the TGI [2] was 16.3 µM and the TGI [3] was > 66.2 µM. For the same molecule, the TGI [4] was 24.9 µM, the TGI [5] was 42.5 µM and the TGI [6] was 24.4 µM. It also gave a TGI [7] of 80.1 µM, a TGI [8] of 27.8 µM and a TGI [9] of 44.5 µM. The TGI [10] was 54.4 µM, the TGI [11] was 57.8 µM and the TGI [12] was > 89.1 µM. The TGI [13] was > 80.2 µM, the TGI [14] was > 75.9 µM and the TGI [15] was > 100 µM. The TGI [16] was > 100 µM, the TGI [17] was > 96.4 µM and the TGI [18] was 51.8 µM. For the same molecule, the TGI [19] was > 100 µM, the TGI [20] was > 72 µM and the TGI [21] was 47.9 µM. The TGI [22] was 63.8 µM, the TGI [23] was > 72.6 µM and the TGI [24] was > 86.8 µM. For the same molecule, the TGI [25] was > 100 µM, the TGI [26] was 18.4 µM and the TGI [27] was 98.2 µM. The TGI [28] was 27.5 µM, the TGI [29] was 19.7 µM and the TGI [30] was 32.7 µM. For the same molecule, the TGI [31] was 12.2 µM, the TGI [32] was > 100 µM and the TGI [33] was > 100 µM. For the same molecule, the TGI [34] was > 100 µM, the TGI [35] was 53 µM and the TGI [36] was > 100 µM. The TGI [37] was 37.1 µM, the TGI [38] was 37 µM and the TGI [39] was 35.1 µM. The TGI [40] was 25.6 µM, the TGI [41] was 45 µM and the TGI [42] was 79.3 µM. For the same molecule, the TGI [43] was 45.5 µM, the TGI [44] was > 86.6 µM and the TGI [45] was > 100 µM. The TGI [46] was > 100 µM, the TGI [47] was > 56 µM and the TGI [48] was > 95.1 µM. For the same molecule, the TGI [49] was > 57 µM, the TGI [50] was 42.6 µM and the TGI [51] was 63.3 µM. The TGI [52] was > 81.2 µM, the TGI [53] was 49.1 µM and the TGI [54] was 32.2 µM. The TGI [55] was 23.5 µM, the TGI [56] was 54.3 µM and the TGI [57] was > 81.2 µM. It also gave a TGI [58] of 77.5 µM and a TGI [59] of 26.8 µM.

With `OCCN(CCO)CCn1cnc2c(NCc3ccccc3)ncnc21` the TGI [1] was > 100 µM, the TGI [2] was > 100 µM and the TGI [3] was > 100 µM. The TGI [4] was > 100 µM, the TGI [5] was > 100 µM and the TGI [6] was > 100 µM. The TGI [7] was > 100 µM, the TGI [8] was > 100 µM and the TGI [9] was > 100 µM. For the same molecule, the TGI [10] was > 100 µM, the TGI [11] was > 100 µM and the TGI [12] was > 100 µM. For the same molecule, the TGI [13] was > 100 µM, the TGI [14] was > 100 µM and the TGI [15] was > 100 µM. The TGI [16] was > 100 µM, the TGI [17] was > 100 µM and the TGI [18] was > 100 µM. The TGI [19] was > 100 µM, the TGI [20] was > 100 µM and the TGI [21] was > 100 µM. The TGI [22] was > 100 µM, the TGI [23] was > 100 µM and the TGI [24] was > 100 µM. For the same molecule, the TGI [25] was > 100 µM, the TGI [26] was > 100 µM and the TGI [27] was > 100 µM. For the same molecule, the TGI [28] was > 100 µM, the TGI [29] was > 100 µM and the TGI [30] was > 100 µM. For the same molecule, the TGI [31] was > 100 µM, the TGI [32] was > 100 µM and the TGI [33] was > 100 µM. The TGI [34] was > 100 µM, the TGI [35] was > 100 µM and the TGI [36] was > 100 µM. The TGI [37] was > 100 µM, the TGI [38] was > 100 µM and the TGI [39] was > 100 µM. For the same molecule, the TGI [40] was > 100 µM, the TGI [41] was > 100 µM and the TGI [42] was > 100 µM. The TGI [43] was > 100 µM, the TGI [44] was > 100 µM and the TGI [45] was > 100 µM. For the same molecule, the TGI [46] was > 100 µM, the TGI [47] was > 100 µM and the TGI [48] was > 100 µM. The TGI [49] was > 100 µM, the TGI [50] was > 100 µM and the TGI [51] was > 100 µM. The TGI [52] was > 100 µM, the TGI [53] was > 100 µM and the TGI [54] was > 100 µM. The TGI [55] was > 100 µM, the TGI [56] was > 100 µM and the TGI [57] was > 100 µM. For the same molecule, the TGI [58] was > 100 µM and the TGI [59] was > 100 µM.
